According to BindingDB's records for doi:10.1016/j.bmcl.2007.10.101 (Solvay Pharmaceuticals, 2008):

Molecular target: Neuronal acetylcholine receptor subunit alpha-4 (Rattus norvegicus, UniProt P09483)
Sequence (P09483 whole entry): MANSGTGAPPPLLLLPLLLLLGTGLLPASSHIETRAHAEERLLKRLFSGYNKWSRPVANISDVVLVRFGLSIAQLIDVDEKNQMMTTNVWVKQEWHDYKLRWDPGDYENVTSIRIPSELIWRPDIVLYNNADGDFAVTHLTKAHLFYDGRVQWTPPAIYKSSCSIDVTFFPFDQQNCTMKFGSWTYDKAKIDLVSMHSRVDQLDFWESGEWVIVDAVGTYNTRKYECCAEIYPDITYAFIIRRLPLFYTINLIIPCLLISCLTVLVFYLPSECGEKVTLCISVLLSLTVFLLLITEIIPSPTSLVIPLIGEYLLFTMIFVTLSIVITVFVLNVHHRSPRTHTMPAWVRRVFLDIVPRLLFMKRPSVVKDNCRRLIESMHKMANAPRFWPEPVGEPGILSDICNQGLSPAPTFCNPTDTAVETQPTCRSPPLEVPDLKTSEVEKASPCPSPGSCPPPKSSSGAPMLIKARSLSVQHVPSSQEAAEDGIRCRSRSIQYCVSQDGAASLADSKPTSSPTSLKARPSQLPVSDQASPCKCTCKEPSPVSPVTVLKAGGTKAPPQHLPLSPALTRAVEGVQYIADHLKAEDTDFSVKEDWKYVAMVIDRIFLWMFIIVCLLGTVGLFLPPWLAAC

c1cnc2[nH]c(C3CCCNC3)cc2c1 (stereo unspecified) [CAS_24759729]
Ki: > 10 µM
